Measurements taken from patent US8563742B2, “Substituted aminothiazole derivatives, pharmaceutical compositions, and methods of use” (High Point Pharmaceuticals, LLC, priority 2008, dated 2013).
Where two headings read alike, the source gives them in different places.

Experiments:
[1] = molecular target: T1, human MC-4R (Homo sapiens, UniProt P32245); experiment: Biological Assay: inhibition of AgRP functional interaction with MC-4R in presence of αMSH (cAMP production); assay type: cell-based; conditions: HEK293 cells expressing human MC-4R, AgRP83-132 and αMSH present
T1 construct: expressed in transfected cells
Procedure: The following method is illustrative of techniques that may be employed to measure the ability of the compounds of Formula (I) to functionally modulate the binding of AgRP to melanocortin receptors. In particular, the assay below measures the ability of compounds of Formula (I) or pharmaceutically acceptable salts thereof to functionally modulate the binding of AgRP to MC-4R in the presence of a MC-4R agonist, such as alpha-MSH.
HEK293 cells stably expressing human MC-4R receptors were grown in high glucose Dulbecco's Modified Eagle Medium (DMEM) with 4500 mg glucose/L, L-glutamine, NaHCO3, pyrdoxin HCl, 10 mM HEPES (pH 7.4), 0.1 mM NEAA (non-essential amino acid medium) (GIBCO Cat#11140-050), 10% fetal bovine serum and 700 μg/mL G418. Cells were grown in T-225 flasks at 37° C. with CO2 and humidity control.
On the day of assay, cells were washed twice with phosphate buffered saline without calcium and magnesium (PBS) and incubated with 10 mL PBS until the cells were detached from the flask. The detached cells were centrifuged at 240 g for 5 min. The cell pellet was re-suspended in assay buffer (Earle's balanced salt solution (Sigma E3024) supplemented with 10 mM HEPES, pH 7.4, 0.5 mM IBMX and protease inhibitor cocktail (Roche, 1 complete tablet/75 mL buffer)).
The inhibitory or enhancement effect of compounds on AgRP activity was measured in a multi-component assay containing testing compounds, AgRP83-132 (human, Phoenix Pharma, cat no. 003-53), cells expressing MC-4R, and αMSH (Bachem, cat no. H-1075). Test compounds, AgRP and αMSH were diluted with assay buffer. Test compounds and AgRP were mixed to 4 times of the final concentration and incubated at room temperature for 30 min. Five μL of testing compound/AgRP solution followed with 10 μL of cells (20,000 cells/well) were added to each well of a 384-well reaction plate before 5 μL of αMSH was added. Cells were stimulated with αMSH for an additional 30 min at 37° C.
Stimulation of cells was stopped by adding a lysis buffer and cells were lysed. The intracellular concentration of cAMP may be measured by various techniques known to one of skill in the art including, but not limited to, fluorescence polarization (FP) and time-resolved fluorescence (TRF).
The inhibition was shown by an increase in MC-4R mediated cAMP production.

[2] = Stability in Liver Microsomes (rat); assay type: in vitro ADME; conditions: 1 μM, 0.5 mg protein/mL, NADPH, 60 minutes, 37° C., pH 7.4
Procedure: (§1) Various compounds were tested for their stability in human, monkey, dog, rat, and mouse liver microsomes. At a final concentration of 1 μM, compounds were incubated with either human, monkey, dog, rat, or mouse liver microsomes (0.5 mg protein/mL) in the presence of an NADPH-solution for 60 minutes at 37° C., pH 7.4 in phosphate buffer. Incubations were performed in duplicate. Reactions were terminated by the addition of methanol. The incubation solution was vortexed and transferred into a 96-well plate. The plate was sealed and centrifuged at approximately 3500 rpm for approximately 10 minutes. After centrifugation, the plate was loaded into 96-well plate autosampler and analyzed by LC/MS. Values are reported as percent of compound remaining after 1 hour.

[3] = Stability in Liver Microsomes (mouse); assay type: in vitro ADME; conditions: 1 μM, 0.5 mg protein/mL, NADPH, 60 minutes, 37° C., pH 7.4
Procedure: as §1

[4] = Stability in Liver Microsomes (dog); assay type: in vitro ADME; conditions: 1 μM, 0.5 mg protein/mL, NADPH, 60 minutes, 37° C., pH 7.4
Procedure: as §1

[5] = Stability in Liver Microsomes (monkey); assay type: in vitro ADME; conditions: 1 μM, 0.5 mg protein/mL, NADPH, 60 minutes, 37° C., pH 7.4
Procedure: as §1

[6] = Stability in Liver Microsomes (human); assay type: in vitro ADME; conditions: 1 μM, 0.5 mg protein/mL, NADPH, 60 minutes, 37° C., pH 7.4
Procedure: as §1

[7] = Pharmacokinetic screening in rats (plasma and brain); conditions: rat, 5 mg/kg PO; for concentration at 2 h: male, Sprague Dawley, po, 5 mg/kg, 2 hour time point; for Brain - 24 hours AUC (h * ng/g): 24 hour study
Procedure: Pharmacokinetic screening in rats was performed on various compounds to measure brain to plasma ratio at 2 hour time point. […] The parameters for the pharmacokinetic protocol were as follows.
Amount of compound: 5 mg/kg
Species: Rat; Strain: Sprague Dawley; Sex: Male
Diet Status: Overnight fasting
Number of Animals (n) for each time point: 2
Formulation: 0.1% CMC, 0.25% Tween 80 in distilled water
Each formulation was administered once by oral gavage using a gavage needle (18G-3, BrainTree Scientific, INC, USA) attached to a syringe. The dose volume was 5 mL/kg for all animals. The actual volume administered to each animal was calculated and adjusted based on the most recent body weight.
Blood samples (approximately 300 μL whole blood) was collected from each animal via tail vein except for terminal blood samples. Terminal blood samples were collected via cardiac puncture. All samples were collected into tubes containing lithium heparin (Multivette 600 LH-Gel, Sarstedt, Newton, N.C., USA). Following collection, the tubes were placed in refrigerator (maximum 30 minutes) or until centrifugation under refrigeration (at 2 to 8° C.) at 5000 g for 7 minutes. Each harvested plasma sample was then transferred into 1.2 mL polypropylene tubes, on the 96-Well Plate according to the 96-Well Plate plasma sample map and kept in freezer. Plasma samples were then analyzed for test substances.
Brain samples were collected immediately after the rats were euthanised at designated time points. Brain samples were rinsed with saline, blotted dry, and weighed. Brain samples were placed into individual containers and kept in freezer (−20° C.). Brain samples were then analyzed for test articles.
After analysis, all the plasma results were reported as ng/mL and brain sample results are reported as ng/g.

[8] = Average EC50 (nM) in Biological Assay
[9] = read-out: Average EC50 (nM) in Biological Assay
[10] = plasma, Plasma - 2 hours (ng/mL)

T1 sequence (P32245 whole entry): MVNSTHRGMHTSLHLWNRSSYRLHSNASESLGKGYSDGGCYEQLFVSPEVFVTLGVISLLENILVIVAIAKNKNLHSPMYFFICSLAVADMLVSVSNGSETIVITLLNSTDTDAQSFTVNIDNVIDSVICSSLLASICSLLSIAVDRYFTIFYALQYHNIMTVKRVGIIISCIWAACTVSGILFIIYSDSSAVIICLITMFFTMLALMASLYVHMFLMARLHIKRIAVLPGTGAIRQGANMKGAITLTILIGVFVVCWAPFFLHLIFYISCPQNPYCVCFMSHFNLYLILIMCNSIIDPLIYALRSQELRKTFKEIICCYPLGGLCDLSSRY

CCC1CCC(c2csc(N(CCC(=O)O)Cc3ccc(C)s3)n2)CC1 (stereo not shown) [Example 19, 3-[[4-(4-Ethyl-cyclohexyl)-thiazol-2-yl]-(5-methyl-thiophen-2-ylmethyl)-amino]-propionic acid]
EC50 [1, 8]: 386 nM | Stability in Liver Microsomes (% remaining after 1 hour incubation) Rat [2]: 52% | Stability in Liver Microsomes (% remaining after 1 hour incubation) Mouse [3]: 73% | Stability in Liver Microsomes (% remaining after 1 hour incubation) Dog [4]: 87% | Stability in Liver Microsomes (% remaining after 1 hour incubation) Monkey [5]: 60% | Stability in Liver Microsomes (% remaining after 1 hour incubation) Human [6]: 43%

CCc1ccc(CN(CCC(=O)[O-])c2nc(-c3ccc(N4CCCC4)cc3)cs2)s1.[Na+] [Reference Compound F, reference compound]
Stability in Liver Microsomes (% remaining after 1 hour incubation) Rat [2]: 27% | Stability in Liver Microsomes (% remaining after 1 hour incubation) Mouse [3]: 30% | Stability in Liver Microsomes (% remaining after 1 hour incubation) Dog [4]: 45% | Stability in Liver Microsomes (% remaining after 1 hour incubation) Monkey [5]: 5% | Stability in Liver Microsomes (% remaining after 1 hour incubation) Human [6]: 40%

Cc1ccc(CN(CCC(=O)O)c2nc(C3(C)CCC(C(C)C)CC3)cs2)s1 (stereo not shown) [Example 48, Sodium; 3-[[4-(4-isopropyl-1-methyl-cyclohexyl)-thiazol-2-yl]-(5-methyl-thiophen-2-ylmethyl)-amino]-propionate]
EC50 [1, 9]: 73 nM | concentration at 2 h ([7]; brain, Brain - 2 hours (ng/g)): 251 ng/g | concentration at 2 h [7, 10]: 486 ng/mL

O=C([O-])CCN(Cc1cccs1)c1nc(C2CCC(c3ccccc3)CC2)cs1.[Na+] (stereo not drawn) [Reference Compound E, Sodium 3-[[4-(trans-4-phenyl-cyclohexyl)-thiazol-2-yl]-(5-thiophen-2-ylmethyl)-amino]-propionate, reference compound]
Stability in Liver Microsomes (% remaining after 1 hour incubation) Rat [2]: 52% | Stability in Liver Microsomes (% remaining after 1 hour incubation) Mouse [3]: 51% | Stability in Liver Microsomes (% remaining after 1 hour incubation) Dog [4]: 50% | Stability in Liver Microsomes (% remaining after 1 hour incubation) Monkey [5]: 38% | Stability in Liver Microsomes (% remaining after 1 hour incubation) Human [6]: 60%

CCc1ccc(CN(CCC(=O)O)c2nc(C3CCCCC3)cs2)s1 [Example 2, 3-[(4-cyclohexyl-thiazol-2-yl)-(5-ethyl-thiophen-2-ylmethyl)-amino]-propionic acid]
EC50 [1, 9]: 135 nM | concentration at 2 h ([7]; brain, Brain - 2 hours (ng/g)): 80 ng/g | concentration at 2 h [7, 10]: 261 ng/mL

CCc1ccc(CN(CCC(=O)O)c2nc(CC3CCCC3)cs2)s1 [Example 4, 3-[(4-Cyclopentylmethyl-thiazol-2-yl)-(5-ethyl-thiophen-2-ylmethyl)-amino]-propionic acid]
EC50 [1, 9]: 324 nM | concentration at 2 h ([7]; brain, Brain - 2 hours (ng/g)): 98 ng/g | concentration at 2 h [7, 10]: 590 ng/mL

Cc1ccc(CN(CCC(=O)[O-])c2nc(C3(c4ccccc4)CCCCC3)cs2)s1.[Na+] [Example 6, Sodium; 3-{(5-methyl-thiophen-2-ylmethyl)-[4-(1-phenyl-cyclohexyl)-thiazol-2-yl]-amino}-propionate]
EC50 [1, 9]: 250 nM | concentration at 2 h ([7]; brain, Brain - 2 hours (ng/g)): 248 ng/g | concentration at 2 h [7, 10]: 445 ng/mL | Brain - 24 hours AUC (h * ng/g) [7]: + (values less than 5,000 h*ng/g)

CC(C)(C)[C@H]1CC[C@H](c2csc(N(CCC(=O)O)Cc3cccs3)n2)CC1 [Reference Compound D, Sodium 3-[[4-(trans-4-tert-butyl-cyclohexyl)-thiazol-2-yl]-(thiophen-2-ylmethyl)-amino]-propionate, reference compound]
Stability in Liver Microsomes (% remaining after 1 hour incubation) Rat [2]: 26% | Stability in Liver Microsomes (% remaining after 1 hour incubation) Mouse [3]: 79% | Stability in Liver Microsomes (% remaining after 1 hour incubation) Dog [4]: 47% | Stability in Liver Microsomes (% remaining after 1 hour incubation) Monkey [5]: 76% | Stability in Liver Microsomes (% remaining after 1 hour incubation) Human [6]: 51%

CCc1ccc(CN(CCC(=O)O)c2nc(C3CC4CCCCC4C3)cs2)s1 (stereo not shown) [Example 58, 3-{(5-Ethyl-thiophen-2-ylmethyl)-[4-(octahydro-inden-2-yl)-thiazol-2-yl]-amino}-propionic acid]
EC50 [1, 9]: 94 nM | concentration at 2 h ([7]; brain, Brain - 2 hours (ng/g)): 720 ng/g | concentration at 2 h [7, 10]: 1330 ng/mL

CCc1ccc(CN(CCC(=O)[O-])c2nc(C3(C)CCC(C)CC3)cs2)s1.[Na+] (stereo not shown) [Example 47, Sodium; 3-[[4-(1,4-dimethyl-cyclohexyl)-thiazol-2-yl]-(5-ethyl-thiophen-2-ylmethyl)-amino]-propionate]
EC50 [1, 9]: 58 nM | concentration at 2 h ([7]; brain, Brain - 2 hours (ng/g)): 886 ng/g | concentration at 2 h [7, 10]: 2090 ng/mL | Brain - 24 hours AUC (h * ng/g) [7]: + (values less than 5,000 h*ng/g)

CCc1ccc(CN(CCC(=O)O)c2nc(CC3CCCCC3)cs2)s1 [Example 3, 3-[(4-Cyclohexylmethyl-thiazol-2-yl)-(5-ethyl-thiophen-2-ylmethyl)-amino]-propionic acid]
EC50 [1, 9]: 246 nM | concentration at 2 h ([7]; brain, Brain - 2 hours (ng/g)): 691 ng/g | concentration at 2 h [7, 10]: 2650 ng/mL

Cc1ccc(CN(CCC(=O)O)c2nc(C3CC(C)(C)CC(C)(C)C3)cs2)s1 [Example 53, 3-{(5-methyl-thiophen-2-ylmethyl)-[4-(3,3,5,5-tetramethyl-cyclohexyl)-thiazol-2-yl]-amino}-propionic acid]
EC50 [1, 9]: 307 nM

CCc1ccc(CN(CCC(=O)O)c2nc(C3CCC(C)(C)CC3)cs2)s1 [Example 54, 3-[[4-(4,4-Dimethyl-cyclohexyl)-thiazol-2-yl]-(5-ethyl-thiophen-2-ylmethyl)-amino]-propionic acid]
EC50 [1, 9]: 36 nM | concentration at 2 h ([7]; brain, Brain - 2 hours (ng/g)): 2980 ng/g | concentration at 2 h [7, 10]: 7710 ng/mL | Brain - 24 hours AUC (h * ng/g) [7]: ++++ (values above 20,000 h*ng/g)

Cc1ccc(CN(CCC(=O)O)c2nc(C3(CC(C)C)CCCC3)cs2)s1 [Example 42, 3-[[4-(1-Isobutyl-cyclopentyl)-thiazol-2-yl]-(5-methyl-thiophen-2-ylmethyl)-amino]-propionic acid]
EC50 [1, 9]: 116 nM | concentration at 2 h ([7]; brain, Brain - 2 hours (ng/g)): 42 ng/g | concentration at 2 h [7, 10]: 50 ng/mL

CCc1ccc(CN(CCC(=O)O)c2nc(C3(C)CCC(C(C)C)CC3)cs2)s1 (stereo not shown) [Example 49, Sodium; 3-{(5-ethyl-thiophen-2-ylmethyl)-[4-(4-isopropyl-1-methyl-cyclohexyl)-thiazol-2-yl]-amino}-propionate]
EC50 [1, 9]: 102 nM

CCc1ccc(CN(CCC(=O)O)c2nc(C3CCC(F)(F)CC3)cs2)s1 [Example 24, Sodium; 3-[[4-(4,4-difluoro-cyclohexyl)-thiazol-2-yl]-(5-ethyl-thiophen-2-ylmethyl)-amino]-propionate]
EC50 [1, 9]: 79 nM

CC(C)C1CCC(c2csc(N(CCC(=O)O)Cc3ccc(S(C)(=O)=O)s3)n2)CC1 (stereo not shown) [Example 37, 3-[[4-(4-Isopropyl-cyclohexyl)-thiazol-2-yl]-(5-methanesulfonyl-thiophen-2-ylmethyl)-amino]-propionic acid]
EC50 [1, 8]: 524 nM

CCc1ccc(CN(CCC(=O)O)c2nc(C3CCC(CC)CC3)cs2)s1 (stereo not shown) [Example 20, 3-[[4-(4-Ethyl-cyclohexyl)-thiazol-2-yl]-(5-ethyl-thiophen-2-ylmethyl)-amino]-propionic acid]
EC50 [1, 8]: 389 nM

CCc1ccc(CN(CCC(=O)O)c2nc(CC3CCC(C)CC3)cs2)s1 (stereo not shown) [Example 15, 3-{(5-Ethyl-thiophen-2-ylmethyl)-[4-(4-methyl-cyclohexylmethyl)-thiazol-2-yl]-amino}-propionic acid]
EC50 [1, 9]: 221 nM

CCCC1CCC(c2csc(N(CCC(=O)O)Cc3ccc(CC)s3)n2)CC1 (stereo not shown) [Example 22, 3-{(5-Ethyl-thiophen-2-ylmethyl)-[4-(4-propyl-cyclohexyl)-thiazol-2-yl]-amino]-propionic acid]
EC50 [1, 9]: 394 nM
